Test results taken from patent US8304238B2, “Cell culture medium and immobilized preparation of cell adhesion protein or peptide” (Nat'l Institute for Environmental Studies, priority 2003, dated 2012).
Where no end group is shown, it is not given here. [ ]: non-standard residue; d: D form. Nle = CCCC[C@H](N)C(=O)O

Assays:
Assay type in all cases: cell-based
[1] = test system: alveolar type II epithelial cells (T2 cells); experiment: Adhesion of T2 cells to pseudomatrices dissolved in 50% ethanol and air-dried/immobilized, and competitive inhibition by free peptide; conditions: for Free GRGDSP concentration at which cell adhesion was almost completely inhibited: free peptide 0.25-4.0 mg/ml tested; for Competitive inhibition of cell adhesion by free peptide: 50% ethanol air-dried pseudomatrix, 0.25 mg/ml free AG73 or FIB-1; for Adhesion of T2 cells to pseudomatrix compared with coated FN: 0.1-1.0 μg/well, 24 hours serum-free
Description: 50 μl of 2-20 μg/ml MAST-GRGDSP (Gly-Arg-Gly-Asp-Ser-Pro) (SEQ ID NO: 22) and MMAC-GRGDSP (SEQ ID NO: 22) dissolved in 50% ethanol were poured into wells, and air-dried/immobilized. Next, the wells to which MAST-GRGDSP (SEQ ID NO: 22) and MMAC-GRGDSP (SEQ ID NO: 22) (0.1-1.0 μg/well) were coated were rinsed with the serum-free DMEM medium. T2 cells suspended in the medium at the concentration of 6×10^4 cells/100 μl were seeded, and cultured in a CO2 incubator at 37° C. for 24 hours. Then, the cells were fixed with methanol, stained, and measured its absorbance according to the method in Example 7. A culture wherein FN was coated as a standard material was conducted simultaneously. The cell adhesion on FN was shown as a standard (100%).
In the same manner as in Example 18, MAST-GRGDSP (SEQ ID NO: 22) was dissolved in 50% ethanol, air-dried/immobilized on wells, and T2 cells were seeded/cultured thereon. Separately, just before the cells were seeded, 0.25-4.0 mg/ml of free GRGDSP (SEQ ID NO: 22) peptide was added to the cell suspension, and the culture and the subsequent measurement of absorbance were conducted in the same manner as described above. […] Further, when the applied amount of MAST-GRGDSP (SEQ ID NO: 22) was decreased, the immobilized amount of GRGDSP (SEQ ID NO: 22) decreased, and the competitive inhibition by free GRGDSP (SEQ ID NO: 22) peptide worked more effectively.
In the same manner as in Example 18, MMAC-GRGDSP (SEQ ID NO: 22) was dissolved in 50% ethanol, air-dried/immobilized on wells, and T2 cells were seeded/cultured thereon. Separately, just before the cells were seeded, 0.25-4.0 mg/ml of free GRGDSP (SEQ ID NO: 22) peptide was added to the cell suspension, and the culture and the subsequent measurement of absorbance were conducted in the same manner as described above.
In the same manner as in Example 18, MBAC/MAST-AG73 and -FIB-1 were dissolved in 50% ethanol, air-dried/immobilized on wells, and T2 cells were seeded/cultured thereon. Separately, just before the cells were seeded, 0.25 mg/ml of free AG73 or FIB-1 peptide was added to the cell suspension, and the culture and the subsequent measurement of absorbance were conducted in the same manner as described above.

[2] = test system: alveolar type II epithelial cells (T2 cells); experiment: Binding strength (affinity) of immobilized LN peptides to T2 cells relative to immobilized FIB-1 (mixed immobilization, free FIB-1 competition); set-up: key to Binding strength to T2 cells, Comprehensive evaluation: AA: extremely strongly binding/adhering; A: strongly binding/adhering; B: intermediately binding/adhering (as the same degree as FIB-1 peptide); C: more weakly binding/adhering than FIB-1 peptide
Description: Therefore, the amount of FIB-1 peptide was set at 0.25 mg/ml, and AG73 peptide was mixed therewith, while changing its concentration ratio, from 1/1.250 of FIB-1 in an amount which is 0.20 μg/ml, to ½ of FIB-1 in an amount which is 0.125 mg/ml, and the mixture was immobilized on a well wherein a hydrophobic binding-adsorptive polymer MMAC was coated. The amount of cell adhesion in the case where T2 cells were cultured under a serum-free condition for 1 day on the immobilized peptides is shown in FIG. 9, in comparison with the case where the culture was conducted on the immobilized FIB-1, which was set at 100%.
However, in a case that the ratio of FIB-1:AG73 increased to 1:0.02, because T2 cells already transited to be adherent through the immobilized AG73 peptide, free FIB-1 peptide could no longer inhibit the cell adhesion. […] Likewise, with regard to A3G72 and A4G82 peptides, because the mixing ratio at the transitional midpoint=0.1, their binding strength to T2 cells is 10 times as much as that of FIB-1.
The method used in FIGS. 8 and 9 is extremely effective as a convenient method by which a relative order can be measured concerning to the binding strength (affinity) of cell adhesion peptides and the strength of cell adhesion can be considered quantitatively.
In Table 1, the classification is shown based on the results of the affinity (bonding/adhesion strength) between FIB-1 peptide containing RGD amino acid sequence of FN molecule, a binding site to integrin, and T2 cells: laminin α-chain G-domain peptides are classified into class AA, extremely strong binding/adhesion; class A, strong adhesion; class B, adhesion as the same degree as FIB-1; and class C, binding weaker than the described above.

[3] = test system: alveolar type II epithelial cells (T2 cells); experiment: Inhibition by free cell adhesion peptides of T2 cell adhesion to coated cell adhesion proteins FN, Col I, LN, VN; conditions: free peptide 0.25 mg/ml; serum-free, 1 day
Description: Commercially available FN, LN and VN, usually used as cell adhesion proteins at cell culture, were coated to wells at the concentrations of 5 μg/ml, 10 μg/ml and 10 μg/ml, respectively. In case of Col I (collagen type I), Col I at the concentration of 100 μg/ml, dissolved in 1 mM HCl, was poured into a well, left stand still for a while, and then the solution was removed and air-drying was conducted, and rinsed with the medium, before use. Next, 6×10^5 cells/ml of alveolar type II epithelial cells (T2 cells) suspended in the serum-free DMEM medium was seeded by 100 μl each on a 96-well to which the extracellular matrix was coated, and cultured in a CO2 incubator at 37° C. for 1 day. After the culture was finished, the cells were fixed with 100 μl of methanol for 5 minutes, and stained for 30 minutes with 50 μl of 0.4% crystal violet. Excessive staining was washed with water, then the number of cells adhered to FN, Col I, LN and VN, which had been coated to the wells, was counted based on the absorbance of cytoplasm (A595).
On the other hand, among amino acid sequences of various LN molecules, the sequences that induce cell adhesion are known to be present. […] Then, the number of cells was counted in accordance with the method described above.

[4] = test system: alveolar type II epithelial cells (T2 cells); experiment: Inhibition of T2 cell adhesion by free peptide different from the immobilized peptide substrate
Description: Results obtained by adding the free peptides different from the immobilized peptides when T2 cells were cultured on the immobilized peptide prepared according to the method in Example 7, were shown in FIG. 8.
When adding the free peptides that were the same as the immobilized peptides in the culture medium, the both (free and immobilized) peptides compete for syndecan of T2 cells and as a result, the cell adhesion is inhibited (see Example 7). So far, four types of syndecans are genetically known. Whether these syndecans are commonly owned or accommodated by each peptide, overlapping only by some degrees, otherwise mutually exclusive, was examined herein.

[5] = test system: alveolar type II epithelial cells (T2 cells); experiment: Adhesion of T2 cells to pseudomatrix adsorbed/immobilized from DMEM and competitive inhibition by free peptides; conditions: for Cell adhesion ability of immobilized pseudomatrix compared with directly coated FN: 1-10 μg/ml in DMEM, 1-day serum-free culture, excluding 1 μg/ml of MBAC-AG73; for Competitive inhibition of cell adhesion to pseudomatrix by free cell adhesion peptide: pseudomatrix 1-10 μg/ml in DMEM
Description: 200 mg each of hydrophobic binding-adsorptive polymer, MBAC, MAST or MMAC were dispersed into water, and 1 N NaOH solution was added little by little to dissolve them completely. 50 mg of WSC (1-ethyl-3-(3-dimethylamino propyl)carbodiimide, hydrochloride) was added to the resulting solution, and the reaction was conducted for 2 hours. Subsequently, 20 mg of peptide was added, and the reaction was continued with stirring for 2 hours at room temperature. After the reaction was finished, the reactant was subjected to dialysis with water to remove alkaline and low molecules, and then freeze-dried to prepare a pseudomatrix of interest.
Each pseudomatrix prepared in Example 13 to which cell adhesion peptide was bound (MBAC-peptide) was diluted in DMEM medium to the concentration of 1-10 μg/ml, and the resultant solution was poured into a 96-well by 100 μl each, and left still overnight in a CO2 incubator to be adsorbed and immobilized on the wells. Non-adsorbed MBAC-peptides were removed by rinsing well with DMEM medium. Next, T2 cells suspended at the concentration of 6×10^5 cells/ml were seeded in the serum-free DMEM by 100 μl each. After 1-day serum-free culture, T2 cells were fixed with 100 μl of methanol for 5 minutes, and stained with 50 μl of 0.4% crystal violet for 30 minutes. Excessive staining was washed with water, and the number of adhering cells was counted based on the absorbance of cytoplasm (A595).
In the same manner as in Example 14, each pseudomatrix prepared in Example 13 to which cell adhesion peptide was bound (MAST-peptide) was adsorbed and immobilized on a 96-well, and T2 cells were seeded and cultured thereon.

Substance: Gly-Arg-Gly-Asp-Ser-Pro (GRGDSP) [reference compound]
- Free GRGDSP concentration at which cell adhesion was almost completely inhibited ([1]; adhesion to MAST-GRGDSP): 4.0 mg/mL
- Free GRGDSP concentration at which cell adhesion was almost completely inhibited ([1]; adhesion to MMAC-GRGDSP): 1.0 to 4.0 mg/mL

Substance: LVLFLNHGHFVA
- Binding strength to T2 cells, Comprehensive evaluation ([2]; classification relative to FIB-1 peptide): B
- Mixing ratio at the transitional midpoint ([2]; peptide:FIB-1 co-immobilized, FIB-1 0.25 mg/ml, loss of inhibition by free FIB-1): about 1
- Inhibition of adhesion of T2 cells to FN, Col I, LN and VN by free peptide [3]: inhibited adhesion of T2 cells
- Inhibition by free peptide of T2 cell adhesion to immobilized AG73 ([4]; AG73 (etc.) immobilized): inhibited the cell adhesion
- Inhibition by free peptide of T2 cell adhesion to immobilized FIB-1 ([4]; FIB-1 immobilized): could inhibit

Substance: MAST-A3G72: pseudomatrix: MAST polymer reacted with A3G72 peptide (KPRLQFSLDIQT)
- Cell adhesion ability of immobilized pseudomatrix compared with directly coated FN [5]: the same level of cell adhesion ability as in the case where FN was directly coated
- Competitive inhibition of cell adhesion to pseudomatrix by free cell adhesion peptide [5]: competitively inhibited by the free cell adhesion peptide, the degree is lower than the case of MBAC-peptide

Substance: MAST-A4G82X: pseudomatrix: MAST polymer reacted with A4G82X peptide (TLFLAHGRLVF[Nle]; also: peptide reacted with MAST polymer (pseudomatrix))
- Cell adhesion ability of immobilized pseudomatrix compared with directly coated FN [5]: the same level of cell adhesion ability as in the case where FN was directly coated
- Competitive inhibition of cell adhesion to pseudomatrix by free cell adhesion peptide [5]: inhibited by free A4G82 peptide

Substance: MAST-AG73: pseudomatrix: MAST polymer reacted with AG73 peptide (RKRLQVQLSIRT)
- Cell adhesion ability of immobilized pseudomatrix compared with directly coated FN [5]: the same level of cell adhesion ability as in the case where FN was directly coated
- Competitive inhibition of cell adhesion to pseudomatrix by free cell adhesion peptide [5]: competitively inhibited by the free cell adhesion peptide, the degree is lower than the case of MBAC-peptide
- Competitive inhibition of cell adhesion by free peptide [1]: almost completely inhibited
- Adhesion of T2 cells to pseudomatrix compared with coated FN ([1]; 50% ethanol, air-dried): similarly to the case where FN was coated

Substance: MAST-GRGDSP: pseudomatrix: MAST polymer bound to GRGDSP peptide (also: bound to MAST polymer)
- Adhesion of T2 cells to pseudomatrix compared with coated FN ([1]; 50% ethanol, air-dried): slightly lower than that of the standard cell adhesion protein FN
- Amount of cell adhesion compared with the same peptide bound to MMAC ([1]; 50% ethanol, air-dried, polystyrene wells): larger amount of cell adhesion than that of the same peptide bound to MMAC polymer

Substance: MBAC-A3G72: pseudomatrix: MBAC polymer reacted with A3G72 peptide (KPRLQFSLDIQT)
- Competitive inhibition of cell adhesion to pseudomatrix by free cell adhesion peptide [5]: competitively inhibited

Substance: MBAC-AG73: pseudomatrix: MBAC polymer reacted with AG73 peptide (RKRLQVQLSIRT)
- Competitive inhibition of cell adhesion to pseudomatrix by free cell adhesion peptide [5]: competitively inhibited
- Competitive inhibition of cell adhesion by free peptide [1]: almost completely inhibited
- Adhesion of T2 cells to pseudomatrix compared with coated FN ([1]; 50% ethanol, air-dried): similarly to the case where FN was coated

Substance: MMAC-GRGDSP: pseudomatrix: MMAC polymer bound to GRGDSP peptide (also: bound to MMAC polymer)
- Adhesion of T2 cells to pseudomatrix compared with coated FN ([1]; 50% ethanol, air-dried): slightly lower than that of the standard cell adhesion protein FN
